Data published in US8722849B2, “Polypeptides” (Novo Nordisk A/S, priority 2011, dated 2014).
Values after ≈ are worked out from the molar mass of the structure shown. Like-named read-outs stand apart in the source and are kept apart here. Starred links: 1 amine or outer side, 2 acyl side, 3 side chain; linkers in the order of their positions; H or OH if unused. Positions of bridges follow the written chain, without caps; N, C: chain ends. Residues, ends and D or L forms follow the SMILES beside them. *: point of attachment. C20 diacid = O=C(O)CCCCCCCCCCCCCCCCCCC(=O)*; γGlu = O=C(O)[C@H](CCC(=O)[*:2])N[*:1]

Assays:
[1] = Assay (IV) determination of solubility; format: physicochemical
In short: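 Solubility is measured across pH 3.0–8.0 by mixing a ~500 nmol/ml aqueous polypeptide stock 1:1 with 100 mM glycylglycine or bistrispropane buffers. Samples stand 18 hours at room temperature, then are centrifuged and the soluble concentration is determined by HPLC.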

[2] = Assay (III) ThT fibrillation assay for physical stability; format: physicochemical
In short: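 Freshly prepared formulations, pH-adjusted, with 1 μM ThT; four or eight replicates incubated at 37 °C under 960 rpm orbital shaking. Fluorescence (ex 444/em 485 nm) read every 20 min; […]. Peptide concentration measured by RP-HPLC before and after the run.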

[3] = bistrispropane buffer, pH 6, pH 6.0, read-out: Solubility pH 6.0
[4] = bistrispropane buffer, pH 6.5, pH 6.5, read-out: Solubility pH 6.5
[5] = bistrispropane buffer, pH 7, pH 7.0, 18 hours at room temperature, Table 3, read-out: Solubility pH 7.0
[6] = bistrispropane buffer, pH 7, pH 7.0, Table 8, read-out: Solubility pH 7.0
[7] = bistrispropane buffer, pH 7, pH 7.0, Table 9, read-out: Solubility pH 7.0
[8] = bistrispropane buffer, pH 7, pH 7.0, read-out: Solubility pH 7.0
[9] = bistrispropane buffer, pH 7.5, pH 7.5, Table 9, read-out: Solubility pH 7.5
[10] = bistrispropane buffer, pH 7.5, pH 7.5, read-out: Solubility pH 7.5
[11] = bistrispropane buffer, pH 8, pH 8.0, read-out: Solubility pH 8.0
[12] = glycylglycine buffer, pH 3, pH 3.0, read-out: Solubility pH 3.0
[13] = glycylglycine buffer, pH 4, pH 4.0, 18 hours at room temperature, Table 2, read-out: Solubility pH 4.0
[14] = glycylglycine buffer, pH 4, pH 4.0, read-out: Solubility pH 4.0
[15] = glycylglycine buffer, pH 5, pH 5.0, read-out: Solubility pH 5.0

Structure (SMILES)	solubility at 18 h [1, 3] [µM]	solubility at 18 h [1, 4] [µM]	solubility at 18 h [1, 5] [µM]	solubility at 18 h [1, 6] [µM]	solubility at 18 h [1, 7] [µM]	solubility at 18 h [1, 8] [µM]	solubility at 18 h [1, 9] [µM]	solubility at 18 h [1, 10] [µM]	solubility at 18 h [1, 11] [µM]	solubility at 18 h [1, 12] [µM]	solubility at 18 h [1, 13] [µM]	solubility at 18 h [1, 14] [µM]	solubility at 18 h [1, 15] [µM]	ThT pH 4.0 lag time ([2]; Table 8) [h]	ThT pH 4.0 lag time ([2]; Table 9) [h]	ThT pH 4.0 lag time ([2]; ThT fibrillation assay) [h]	ThT pH 4.0 lag time (h) ([2]; ThT fibrillation assay)
CC[C@H](C)[C@H](NC(=O)[C@@H]1CCCN1C(=O)CNC(=O)[C@H](Cc1ccccc1)NC(=O)[C@H](CC(N)=O)NC(=O)[C@H](CC(N)=O)NC(=O)[C@H](CO)NC(=O)[C@H](CO)NC(=O)[C@H](Cc1c[nH]cn1)NC(=O)[C@H](CCCNC(=N)N)NC(=O)[C@H](CC(C)C)NC(=O)[C@H](Cc1ccccc1)NC(=O)[C@H](CCC(=O)O)NC(=O)[C@H](C)NC(=O)[C@H](CC(C)C)NC(=O)[C@H](CCCNC(=N)N)NC(=O)[C@H](CCC(N)=O)NC(=O)[C@@H](NC(=O)[C@H](C)NC(=O)[C@@H]1CSSC[C@H](NC(=O)[C@H](Cc2c[nH]cn2)NC(=O)CC[C@H](NC(=O)CCCCCCCCCCCCCCCCCCC(=O)O)C(=O)O)C(=O)N[C@@H](CC(N)=O)C(=O)N[C@@H]([C@@H](C)O)C(=O)N[C@@H](C)C(=O)N[C@@H]([C@@H](C)O)C(=O)N1)[C@@H](C)O)C(=O)N[C@@H](CC(C)C)C(=O)N1CCC[C@H]1C(=O)N1CCC[C@H]1C(=O)N[C@H](C(=O)N[C@@H](CC(N)=O)C(=O)N[C@H](C(=O)NCC(=O)N[C@@H](CO)C(=O)N[C@@H](CC(N)=O)C(=O)N[C@H](C(=O)N1CCC[C@H]1C(N)=O)[C@@H](C)O)C(C)C)[C@@H](C)O [Example 90, N-alpha-[(S)-4-Carboxy-4-(19-carboxynonadecanoylamino)butyryl]-[His1,Glu14,Arg17,Pro37]-pramlintide] ({C20 diacid-γGlu}-HCNTATCATQRLAEFLRHSSNNFGPILPPTNVGSNTP-NH2; disulfide 2-7 (inferred); C-terminus assumed)	> 200	> 200	> 200	> 200	> 200	> 200	> 200	> 200	> 200	> 200	> 200	> 200	> 200	>45	>45	>45	>45
CC[C@H](C)[C@H](NC(=O)[C@@H]1CCCN1C(=O)CNC(=O)[C@H](Cc1ccccc1)NC(=O)[C@H](CC(N)=O)NC(=O)[C@H](CC(N)=O)NC(=O)[C@H](CO)NC(=O)[C@H](CO)NC(=O)[C@H](Cc1c[nH]cn1)NC(=O)[C@@H](NC(=O)[C@H](CC(C)C)NC(=O)[C@H](Cc1ccccc1)NC(=O)[C@H](CCC(=O)O)NC(=O)[C@H](C)NC(=O)[C@H](CC(C)C)NC(=O)[C@H](CCCNC(=N)N)NC(=O)[C@H](CCC(N)=O)NC(=O)[C@@H](NC(=O)[C@H](C)NC(=O)[C@@H]1CSSC[C@H](NC(=O)[C@H](CCCCN)NC(=O)CC[C@H](NC(=O)CCCCCCCCCCCCCCCCCCC(=O)O)C(=O)O)C(=O)N[C@@H](CC(N)=O)C(=O)N[C@@H]([C@@H](C)O)C(=O)N[C@@H](C)C(=O)N[C@@H]([C@@H](C)O)C(=O)N1)[C@@H](C)O)C(C)C)C(=O)N[C@@H](CC(C)C)C(=O)N1CCC[C@H]1C(=O)N1CCC[C@H]1C(=O)N[C@H](C(=O)N[C@@H](CC(N)=O)C(=O)N[C@H](C(=O)NCC(=O)N[C@@H](CO)C(=O)N[C@@H](Cc1c[nH]cn1)C(=O)N[C@H](C(=O)N[C@@H](Cc1ccc(O)cc1)C(N)=O)[C@@H](C)O)C(C)C)[C@@H](C)O [Example 93, N-alpha-[(S)-4-Carboxy-4-(19-carboxynonadecanoylamino)butyryl]-[Glu14,His35]-pramlintide] ({C20 diacid-γGlu}-KCNTATCATQRLAEFLVHSSNNFGPILPPTNVGSHTY-NH2; disulfide 2-7 (inferred); C-terminus assumed)	> 200	84 (≈ 373 µg/mL)				74 (≈ 329 µg/mL)		163 (≈ 724 µg/mL)	> 200	> 200	> 200	> 200	> 200				19
CC[C@H](C)[C@H](NC(=O)[C@@H]1CCCN1C(=O)CNC(=O)[C@H](Cc1ccccc1)NC(=O)[C@H](CC(N)=O)NC(=O)[C@H](CC(N)=O)NC(=O)[C@H](CO)NC(=O)[C@H](CO)NC(=O)[C@H](Cc1c[nH]cn1)NC(=O)[C@H](Cc1c[nH]cn1)NC(=O)[C@H](CC(C)C)NC(=O)[C@H](Cc1ccccc1)NC(=O)[C@H](CCC(=O)O)NC(=O)[C@H](C)NC(=O)[C@H](CC(C)C)NC(=O)[C@H](CCCNC(=N)N)NC(=O)[C@H](CCC(N)=O)NC(=O)[C@@H](NC(=O)[C@H](C)NC(=O)[C@@H]1CSSC[C@H](NC(=O)[C@H](CCCNC(=N)N)NC(=O)CC[C@H](NC(=O)CCCCCCCCCCCCCCCCCCC(=O)O)C(=O)O)C(=O)N[C@@H](CC(N)=O)C(=O)N[C@@H]([C@@H](C)O)C(=O)N[C@@H](C)C(=O)N[C@@H]([C@@H](C)O)C(=O)N1)[C@@H](C)O)C(=O)N[C@@H](CC(C)C)C(=O)N1CCC[C@H]1C(=O)N1CCC[C@H]1C(=O)N[C@H](C(=O)N[C@@H](CC(N)=O)C(=O)N[C@H](C(=O)NCC(=O)N[C@@H](CO)C(=O)N[C@@H](CC(N)=O)C(=O)N[C@H](C(=O)N1CCC[C@H]1C(N)=O)[C@@H](C)O)C(C)C)[C@@H](C)O [Example 96, N-alpha-[(S)-4-Carboxy-4-(19-carboxynonadecanoylamino)butyryl]-[Arg1,Glu14,His17,Pro37]-pramlintide] ({C20 diacid-γGlu}-RCNTATCATQRLAEFLHHSSNNFGPILPPTNVGSNTP-NH2; disulfide 2-7 (inferred))	> 200	> 200	> 200	> 200	> 200	> 200	> 200	> 200	> 200	> 200	> 200	> 200	> 200	>45	>45	>45	>45
CC[C@H](C)[C@H](NC(=O)[C@@H]1CCCN1C(=O)CNC(=O)[C@H](Cc1ccccc1)NC(=O)[C@H](CC(N)=O)NC(=O)[C@H](CC(N)=O)NC(=O)[C@H](CO)NC(=O)[C@H](CO)NC(=O)[C@H](Cc1c[nH]cn1)NC(=O)[C@H](Cc1c[nH]cn1)NC(=O)[C@H](CC(C)C)NC(=O)[C@H](Cc1ccccc1)NC(=O)[C@H](CCC(=O)O)NC(=O)[C@H](C)NC(=O)[C@H](CC(C)C)NC(=O)[C@H](CCCNC(=N)N)NC(=O)[C@H](CCC(N)=O)NC(=O)[C@@H](NC(=O)[C@H](C)NC(=O)[C@@H]1CSSC[C@H](NC(=O)[C@H](CCCNC(=N)N)NC(=O)CNC(=O)CC[C@H](NC(=O)CCCCCCCCCCCCCCCCCCC(=O)O)C(=O)O)C(=O)N[C@@H](CC(N)=O)C(=O)N[C@@H]([C@@H](C)O)C(=O)N[C@@H](C)C(=O)N[C@@H]([C@@H](C)O)C(=O)N1)[C@@H](C)O)C(=O)N[C@@H](CC(C)C)C(=O)N1CCC[C@H]1C(=O)N1CCC[C@H]1C(=O)N[C@H](C(=O)N[C@@H](CC(N)=O)C(=O)N[C@H](C(=O)NCC(=O)N[C@@H](CO)C(=O)N[C@@H](CC(N)=O)C(=O)N[C@H](C(=O)N1CCC[C@H]1C(N)=O)[C@@H](C)O)C(C)C)[C@@H](C)O [Example 101, N-alpha-[(S)-4-Carboxy-4-(19-carboxynonadecanoylamino)butyryl]-Gly-[Arg1,Glu14,His17,Pro37]-pramlintide] ({C20 diacid-γGlu}-GRCNTATCATQRLAEFLHHSSNNFGPILPPTNVGSNTP-NH2; disulfide 3-8 (inferred))	> 200	> 200	> 200	> 200	> 200	> 200	> 200	> 200	> 200	> 200	> 200	> 200	> 200	>45	>45	>45	>45
